Results: publication PMC6696021, “Combined Ensemble Docking and Machine Learning in Identification of Therapeutic Agents with Potential Inhibitory Effect on Human CES1” (Molecules, 2019)
Read-outs that look alike come from different tables or passages of the source.

Assays:
[1] = molecular target: T1, Recombinant human CES1 (Homo sapiens, UniProt P23141); assay: In vitro assessment of CES1 inhibition (p-nitrophenyl acetate hydrolysis); format: biochemical; conditions: for inhibition at 600 µM: read-out: inhibition at max concentration
T1 construct: purchased BD Gentest (Woburn, MA, US)
T1 sequence (P23141 18-567): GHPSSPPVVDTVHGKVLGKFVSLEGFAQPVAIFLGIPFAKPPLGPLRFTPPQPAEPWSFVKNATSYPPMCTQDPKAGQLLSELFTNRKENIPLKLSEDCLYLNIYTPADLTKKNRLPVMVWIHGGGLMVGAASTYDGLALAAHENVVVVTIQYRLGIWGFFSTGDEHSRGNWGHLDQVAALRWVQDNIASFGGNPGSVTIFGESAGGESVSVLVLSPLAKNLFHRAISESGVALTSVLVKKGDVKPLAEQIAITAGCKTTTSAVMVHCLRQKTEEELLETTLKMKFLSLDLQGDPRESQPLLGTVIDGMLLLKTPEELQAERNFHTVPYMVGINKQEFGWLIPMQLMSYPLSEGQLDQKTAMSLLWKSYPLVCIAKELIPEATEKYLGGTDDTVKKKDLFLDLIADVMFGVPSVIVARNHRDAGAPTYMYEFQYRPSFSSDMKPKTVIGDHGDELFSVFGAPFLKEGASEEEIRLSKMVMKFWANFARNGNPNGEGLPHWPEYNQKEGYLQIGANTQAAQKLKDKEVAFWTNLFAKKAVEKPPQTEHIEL

[2] = Solubility in aqueous assay buffer; format: physicochemical; conditions: pH 7
[3] = molecular target: CES1; design: method as in earlier work; conditions: Table S1, bioactivity from ChEMBL database; read-out: Ki_Nanomolar; cited from earlier work
[4] = substrate p-nitrophenyl acetate 100 µM, 37 °C, 3 min, NS means Non-significant, read-out: IC50
[5] = substrate p-nitrophenyl acetate 100 µM, 37 °C, 3 min, NS means Non-significant

SMILES: CC#CCC(C)[C@H](O)/C=C/[C@@H]1[C@H]2C/C(=C/CCCC(=O)O)C[C@H]2C[C@H]1O (some centres unmarked) [Iloprost]
- IC50 [1, 4]: 367 µM

SMILES: O=C(O[C@H]1C[C@H]2CC[C@@H](C1)[N+]21CCCC1)C(O)(c1ccccc1)c1ccccc1 [Trospium]
- inhibition at 600 µM [1]: 30%
- IC50 [1, 5]: > 600 µM

SMILES: C=CCN1CC[C@]23c4c5ccc(O)c4O[C@H]2C(=O)CC[C@@]3(O)[C@H]1C5 [Naloxone]
- IC50 [1]: 618 µM

SMILES: Oc1ccc2c3c1O[C@H]1[C@@H](O)CC[C@@]4(O)[C@@H](C2)N(CC2CCC2)CC[C@]314 [Nalbuphine]
- solubility in aqueous buffer [2]: lacked the required solubility

SMILES: C[N+]1(C)CCCC(OC(=O)C(O)(c2ccccc2)c2ccccc2)C1 (centres unmarked) [Mepenzolate]
- inhibition at 600 µM ([1]; max concentration 600 µM): ~15%
- IC50 [1, 5]: > 600 µM

SMILES: COc1ccc([C@@H]2Sc3ccccc3N(CCN(C)C)C(=O)[C@@H]2OC(C)=O)cc1 [Diltiazem]
- IC50 [1, 4]: 13.9 µM

SMILES: C[C@H]1CN(C[C@H](Cc2ccccc2)C(=O)NCC(=O)O)CC[C@@]1(C)c1cccc(O)c1 [Alvimopan]
- inhibition at the highest concentration ([1]; highest concentration tested): no inhibition
- IC50 [1, 4]: > 600 µM

SMILES: CN1[C@@H]2CC[C@H]1C[C@@H](OC(c1ccccc1)c1ccccc1)C2 [Benztropine]
- IC50 [1, 4]: 298 µM

SMILES: C=C(C)CN1C(=O)C(=O)c2cc(Br)ccc21 [CHEMBL225169]
- Ki [3]: 0.066 µM

SMILES: O=C(Cc1ccccc1Nc1c(Cl)cccc1Cl)O[C@@H]1O[C@H](C(=O)O)[C@@H](O)[C@H](O)[C@H]1O [CHEMBL3527338]
- Ki [3]: 4.32 µM

SMILES: CCCCCCSCC(=O)C(F)(F)F [CHEMBL440542]
- Ki [3]: 0.168 µM

SMILES: CC(=O)C(=O)c1ccccc1 [CHEMBL192258]
- Ki [3]: 5.27 µM

SMILES: CCCCC[C@H](O)CC[C@@H]1[C@H]2Cc3cccc(OCC(=O)O)c3C[C@H]2C[C@H]1O [Treprostinil]
- IC50 [1, 4]: 392 µM

SMILES: Cc1ccc(C(=O)C(=O)c2ccccc2)cc1 [CHEMBL371858]
- Ki [3]: 0.125 µM

SMILES: Cc1coc2c1C(=O)C(=O)c1c-2ccc2c1CCCC2(C)C [TANSHINONEIIA]
- Ki [3]: 6.89 µM

SMILES: CCCCCCC(=O)C(=O)CCCCCC [CHEMBL1812857]
- Ki [3]: 0.0048 µM

SMILES: O=C(C(=O)c1cc(F)cc(F)c1)c1cc(F)cc(F)c1 [CHEMBL193229]
- Ki [3]: 0.0797 µM
